Measurements reported in publication PMC12527922, “Cocaine chemogenetics blunts drug-seeking by synthetic physiology” (Nature, 2025).

Target: coca-5HT3 (α7(L141G,G175K,Y210F,Y217F)–5HT3) (Homo sapiens, UniProt P36544, G175K/L141G/Y210F/Y217F)
Test: Membrane potential assay, coca-5HT3 in HEK293
Details: for Response / Max normalized Response: coca-5HT3; for Max normalized Response: ED Fig 3b

coca-5HT3 (α7(L141G,G175K,Y210F,Y217F)–5HT3), sequence (P36544 23-224 L141G/G175K/Y210F/Y217F): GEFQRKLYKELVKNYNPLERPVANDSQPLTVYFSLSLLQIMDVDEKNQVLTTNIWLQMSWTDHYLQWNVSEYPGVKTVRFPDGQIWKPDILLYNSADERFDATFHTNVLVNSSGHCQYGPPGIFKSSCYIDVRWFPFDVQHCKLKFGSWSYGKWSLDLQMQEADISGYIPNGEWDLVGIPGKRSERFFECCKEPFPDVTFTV
coca-5HT3 (α7(L141G,G175K,Y210F,Y217F)–5HT3), sequence (P23979 242-489, further chain): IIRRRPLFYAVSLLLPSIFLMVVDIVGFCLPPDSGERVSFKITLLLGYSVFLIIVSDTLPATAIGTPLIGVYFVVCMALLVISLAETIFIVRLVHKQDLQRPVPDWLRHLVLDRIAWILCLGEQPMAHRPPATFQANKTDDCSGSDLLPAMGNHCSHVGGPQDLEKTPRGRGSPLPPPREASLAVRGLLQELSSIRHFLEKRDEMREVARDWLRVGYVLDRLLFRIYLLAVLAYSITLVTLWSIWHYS

SMILES | Response (conc 0.457247 uM, ED Fig 3a) | Response (conc 1.37174 uM, ED Fig 3a) | Response (conc 12.3457 uM, ED Fig 3a) | Response (conc 37.037 uM, ED Fig 3a) | Response (conc 111.111 uM, ED Fig 3a) | Response (conc 333.333 uM, ED Fig 3a) | Response (conc 1000 uM, ED Fig 3a) | Max normalized Response (conc 0.137 uM) | Max normalized Response (conc 3.7 uM) | Max normalized Response (conc 11.1 uM) | Max normalized Response (conc 33.3 uM) | Max normalized Response (conc 100 uM) | also measured
NCCc1c[nH]cn1 [Histamine] | 0.136 | 0.016 | 0.035 | 0.028 | 0.056 | 0.051 | 0.086 |  |  |  |  |  | 
CN[C@@H](C)Cc1ccccc1 [methamphetamine] |  |  |  |  |  |  |  |  |  |  |  |  | Response (conc 0.0137 uM, ED Fig. 2c): 0.198; Response (conc 0.123 uM, ED Fig. 2c): 0.256; Response (conc 0.37 uM, ED Fig. 2c): 0.136; Response (conc 10 uM, ED Fig. 2c): 0.224; Response (conc 30 uM, ED Fig. 2c): 0.204; activation of coca-5HT3 (membrane potential assay dose response): did not activate
CCN(CC)CCOC(=O)c1ccc(N)cc1 [Procaine] |  |  |  |  |  |  |  | 0.07766 | 0.1325 | 0.1562 | 0.143 | 0.166 | activation of coca-5HT3 (up to 100 µM): did not activate
NCCc1c[nH]c2ccc(O)cc12 [Serotonin] |  | 0.295 | 0.101 | 0.082 | 0.115 | 0.156 | 0.112 |  |  |  |  |  | 
CCCCC/C=C\C/C=C\C/C=C\C/C=C\CCCC(=O)NCCO [Anandamide] | 0.053 | 0.085 | 0.046 | 0.011 | 0.073 | 0.021 | 0.149 |  |  |  |  |  | 
CC[N+]1(C)[C@@H]2CC(OC(=O)[C@H](CO)c3ccccc3)C[C@H]1[C@@H]1O[C@@H]12 (stereo partly shown) [Oxitroprium] |  |  |  |  |  |  |  | 0.04923 | 0.04777 | 0.1339 | 0.03611 | 0.1339 | 
